Experimental findings from patent US11524966B1 (Valo Early Discovery, Inc., priority 2017, dated 2022) are described below.

The assay concerns the target T1, USP25 (USP25-His6, Boston Biochem E-546) (Homo sapiens, UniProt Q9UHP3).
T1 construct: His6; purchased Boston Biochem E-546
T1 sequence (Q9UHP3 1-1055): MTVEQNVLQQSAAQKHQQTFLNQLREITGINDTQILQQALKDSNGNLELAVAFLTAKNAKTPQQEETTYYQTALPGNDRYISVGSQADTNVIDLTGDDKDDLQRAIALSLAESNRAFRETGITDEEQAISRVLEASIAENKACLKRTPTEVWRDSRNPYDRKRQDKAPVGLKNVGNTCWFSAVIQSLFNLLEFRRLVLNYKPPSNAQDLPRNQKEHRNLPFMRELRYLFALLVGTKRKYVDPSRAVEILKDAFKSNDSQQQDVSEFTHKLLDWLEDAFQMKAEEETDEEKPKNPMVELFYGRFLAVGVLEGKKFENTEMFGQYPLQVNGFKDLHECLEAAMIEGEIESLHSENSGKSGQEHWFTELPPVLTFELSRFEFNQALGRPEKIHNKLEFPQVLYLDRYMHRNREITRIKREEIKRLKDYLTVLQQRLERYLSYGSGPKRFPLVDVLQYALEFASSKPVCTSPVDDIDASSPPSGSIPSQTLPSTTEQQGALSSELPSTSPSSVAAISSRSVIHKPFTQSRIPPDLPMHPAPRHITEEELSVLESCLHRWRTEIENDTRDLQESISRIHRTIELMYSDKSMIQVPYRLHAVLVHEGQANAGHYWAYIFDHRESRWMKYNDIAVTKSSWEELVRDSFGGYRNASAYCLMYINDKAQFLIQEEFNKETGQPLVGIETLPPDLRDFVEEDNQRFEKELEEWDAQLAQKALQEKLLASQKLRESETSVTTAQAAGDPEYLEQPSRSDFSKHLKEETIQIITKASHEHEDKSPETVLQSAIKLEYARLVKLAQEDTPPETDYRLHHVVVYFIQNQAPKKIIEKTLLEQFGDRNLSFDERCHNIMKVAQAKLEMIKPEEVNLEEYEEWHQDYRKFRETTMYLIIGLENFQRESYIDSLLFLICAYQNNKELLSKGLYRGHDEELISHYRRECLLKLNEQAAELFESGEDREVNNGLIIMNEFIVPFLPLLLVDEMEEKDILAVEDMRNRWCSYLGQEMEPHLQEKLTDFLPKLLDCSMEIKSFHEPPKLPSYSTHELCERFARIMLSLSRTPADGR
In words: Ubiquitin-Rhodamine 110 Assay for USP25 Activity, Example A-2. As to conditions: Ubiquitin-Rhodamine 110 assay, Example A-2; read-out: USP25 A-2 IC50 range. It counts as biochemical. The method, boiled down: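 Inhibition is quantified as IC50 by 4-parameter fit of fluorescence (485/535 nm) from Ub-Rh110 hydrolysis. Enzyme USP25-His6 at 75 pM with 30 min compound preincubation, then 25 nM substrate for 45 min at room temperature in pH 8.0 Tris buffer containing BME.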

The structures appear in SMILES notation. Some results are limits rather than exact numbers.

By IC50 is commonly meant the concentration that inhibits the measured activity by half. Turning to `Cc1ccc2c(N)c(C(=O)N[C@H]3CCc4nc(N5CC6CCC(C5)N6)ccc4C3)sc2n1` [Example 23-12, 3-amino-N-[(6S)-2-{3,8-diazabicyclo[3.2.1]octan-3-yl}-5,6,7,8-tetrahydroquinolin-6-yl]-6-methylthieno[2,3-b]pyridine-2-carboxamide], the IC50 lay within 200 to 2000 nM.

Consider `Cc1cnc2c(N)c(C(=O)N[C@H]3CCc4nc(N5CC6CCC(C5)N6)ccc4C3)sc2n1` [Example 23-13, 7-amino-N-{(6S)-2-{3,8-diazabicyclo[3.2.1]octan-3-yl}-5,6,7,8-tetrahydroquinolin-6-yl]-3-methylthieno[2,3-b]pyrazine-6-carboxamide], for which the IC50 was 200 to 2000 nM.

On to `Cc1cc(C)c2c(N)c(C(=O)N[C@H]3CCc4nc(N5CCNCC5)ccc4C3)sc2n1` [Example 23-14, 3-amino-4,6-dimethyl-N-[(6S)-2-(piperazin-1-yl)-5,6,7,8-tetrahydroquinolin-6-yl]thieno[2,3-b]pyridine-2-carboxamide], for which the concentration for half-maximal inhibition (IC50) was in the range of 200 to 2000 nM.

As for `Cc1ccc2c(N)c(C(=O)N[C@H]3CCc4nc(N5CCNCC5)cc(F)c4C3)sc2n1` [Example 23-17, 3-amino-N-[(6S)-4-fluoro-2-(piperazin-1-yl)-5,6,7,8-tetrahydroquinolin-6-yl]-6-methylthieno[2,3-b]pyridine-2-carboxamide], the IC50 lay in the range of 200 to 2000 nM.

Take `Cc1ccc2c(N)c(C(=O)N[C@H]3CCc4nc(N5CC6CCC(C5)N6)cc(F)c4C3)sc2n1` [Example 23-18, N-((6S)-2-(3,8-diazabicyclo[3.2.1]octan-3-yl)-4-fluoro-5,6,7,8-tetrahydroquinolin-6-yl)-3-amino-6-methylthieno[2,3-b]pyridine-2-carboxamide]: the IC50 was in the range of 200 to 2000 nM.

As to `Cc1ccc2c(N)c(C(=O)N[C@H]3CCc4nc(N5C[C@@H](N)[C@H](C(F)F)C5)ccc4C3)sc2n1` [Example 25, 3-Amino-N-[(6S)-2-[(3S,4R)-3-amino-4-(difluoromethyl)pyrrolidin-1-yl]-5,6,7,8-tetrahydroquinolin-6-yl]-6-methylthieno[2,3-b]pyridine-2-carboxamide], the IC50 was 200 to 2000 nM.

With `Cc1ccc2c(N)c(C(=O)N[C@H]3COc4cc(C5(C#N)CCS(=O)(=O)CC5)ccc4C3)sc2n1` [Example 34, 3-amino-N-[(3R)-7-(4-cyano-1,1-dioxo-1λ6-thian-4-yl)-3,4-dihydro-2H-1-benzopyran-3-yl]-6-methylthieno[2,3-b]pyridine-2-carboxamide], the IC50 was 1 to 50 nM.

Take `Cc1ccc2c(N)c(C(=O)N[C@H]3COc4c(F)c(N5CCNCC5)c(F)c(F)c4C3)sc2n1` [Example 35, 3-amino-6-methyl-N-[(3R)-5,6,8-trifluoro-7-(piperazin-1-yl)-3,4-dihydro-2H-1-benzopyran-3-yl]thieno[2,3-b]pyridine-2-carboxamide]: the IC50 is 50 to 200 nM.

In the case of `CCc1cnc2sc(C(=O)N[C@H]3COc4cc(N5CCNCC5)ccc4C3)c(N)c2n1` [Example 36, (R)-7-amino-2-ethyl-N-(7-(piperazin-1-yl)chroman-3-yl)thieno[2,3-b]pyrazine-6-carboxamide], the IC50 lay in the range of 200 to 2000 nM.

Take `CCc1cnc2sc(C(=O)N[C@@H]3COc4cc(N5CCNCC5)ccc4C3)c(N)c2n1` [Example 37, (S)-7-amino-2-ethyl-N-(7-(piperazin-1-yl)chroman-3-yl)thieno[2,3-b]pyrazine-6-carboxamide]: the IC50 was > 2000 nM.

With `O=C(N[C@H]1COc2cc(N3CCNCC3)ccc2C1)c1cnc2c(ccn2C(F)F)c1` [Example 38, (R)-1-(difluoromethyl)-N-(7-(piperazin-1-yl)chroman-3-yl)-1H-pyrrolo[2,3-b]pyridine-5-carboxamide], the IC50 was > 2000 nM.

On to `O=C(N[C@@H]1COc2cc(N3CCNCC3)ccc2C1)c1cnc2c(ccn2C(F)F)c1` [Example 39, (S)-1-(difluoromethyl)-N-(7-(piperazin-1-yl)chroman-3-yl)-1H-pyrrolo[2,3-b]pyridine-5-carboxamide], for which the IC50 is > 2000 nM.

For `Cc1ccc2c(N)c(C(=O)N[C@H]3COc4cc(N5C[C@H]6CNC[C@@H]6C5)ccc4C3)sc2n1` [Example 43, 3-amino-N-((R)-7-((3aR,6aR)-hexahydropyrrolo[3,4-c]pyrrol-2(1H)-yl)chroman-3-yl)-6-methylthieno[2,3-b]pyridine-2-carboxamide], the IC50 is > 2000 nM.

With `Cc1ccc2c(N)c(C(=O)N[C@@H]3COc4cc(N5C[C@H]6CNC[C@@H]6C5)ccc4C3)sc2n1` [Example 44, 3-amino-N-((S)-7-((3aR,6aR)-hexahydropyrrolo[3,4-c]pyrrol-2(1H)-yl)chroman-3-yl)-6-methylthieno[2,3-b]pyridine-2-carboxamide], the IC50 is > 2000 nM.

Regarding `Nc1c(C(=O)N[C@H]2COc3cc(N4CCNCC4)ccc3C2)sc2nc(C3CC3)sc12` [Example 45], the IC50 lay within 200 to 2000 nM.

As for `Cc1nc2sc(C(=O)N[C@@H]3COc4cc(N5CC6CCC(C5)N6)c(F)cc4C3)c(N)c2s1` [Example 46, N-((3S)-7-(3 8-diazabicyclo[3.2.1]octan-3-yl)-6-fluorochroman-3-yl)-6-amino-2-methylthieno[2,3-d]thiazole-5-carboxamide], the IC50 lay in the range of 200 to 2000 nM.

As to `Cc1nc2sc(C(=O)N[C@H]3COc4cc(N5CC6CCC(C5)N6)c(F)cc4C3)c(N)c2s1` [Example 47, N-((3R)-7-(3,8-diazabicyclo[3.2.1]octan-3-yl)-6-fluorochroman-3-yl)-6-amino-2-methylthieno[2,3-d]thiazole-5-carboxamide], the IC50 was > 2000 nM.

As to `Cc1ccc2c(N)c(C(=O)N[C@H]3COc4cc(N5CCNCC5)cc(Cl)c4C3)sc2n1` [Example 48, (R)-3-amino-N-(5-chloro-7-(piperazin-1-yl)chroman-3-yl)-6-methylthieno[2,3-b]pyridine-2-carboxamide], the IC50 fell in the range of 50 to 200 nM.

As for `Cc1ccc2c(N)c(C(=O)N[C@@H]3COc4cc(N5CCNCC5)cc(Cl)c4C3)sc2n1` [Example 49, (S)-3-amino-N-(5-chloro-7-(piperazin-1-yl)chroman-3-yl)-6-methylthieno[2,3-b]pyridine-2-carboxamide], the IC50 was > 2000 nM.

With `O=C(N[C@H]1COc2cc(N3CC4CCC(C3)N4)ccc2C1)c1cnc2c(c1)CCCN2` [Example 50, N-((3R)-7-(3,8-diazabicyclo[3.2.1]octan-3-yl)chroman-3-yl)-5,6,7,8-tetrahydro-1,8-naphthyridine-3-carboxamide], the IC50 was 200 to 2000 nM.

With `O=C(N[C@H]1COc2cc(N3CC4CCC(C3)N4)ccc2C1)c1cnc2c(c1)CCCO2` [Example 51, N-((3R)-7-(3,8-diazabicyclo[3.2.1]octan-3-yl)chroman-3-yl)-3,4-dihydro-2H-pyrano[2,3-b]pyridine-6-carboxamide], the IC50 is > 2000 nM.

`O=C(N[C@H]1COc2cc(N3CCNCC3)ccc2C1)c1ccc(NCc2ccccc2)nc1` [Example 52, (R)-6-(benzylamino)-N-(7-(piperazin-1-yl)chroman-3-yl)nicotinamide]: the IC50 is 200 to 2000 nM.

Consider `C[C@H](Nc1ccc(C(=O)N[C@H]2COc3cc(N4CCNCC4)ccc3C2)cn1)c1ccccc1` [Example 53, 6-(((S)-1-phenylethyl)amino)-N-((R)-7-(piperazin-1-yl)chroman-3-yl)nicotinamide], for which the IC50 was > 2000 nM.

Regarding `C[C@@H](Nc1ccc(C(=O)N[C@H]2COc3cc(N4CCNCC4)ccc3C2)cn1)c1ccccc1` [Example 54, 6-(((R)-1-phenylethyl)amino)-N-((R)-7-(piperazin-1-yl)chroman-3-yl)nicotinamide], the IC50 is > 2000 nM.

On to `Cc1ccc2c(N)c(C(=O)N[C@H]3COc4c(F)c(N5CCNCC5)cc(F)c4C3)sc2n1` [Example 55, (R)-3-amino-N-(5,8-difluoro-7-(piperazin-1-yl)chroman-3-yl)-6-methylthieno[2,3-b]pyridine-2-carboxamide], for which the IC50 fell in the range of 50 to 200 nM.

`Cc1nc2sc(C(=O)N[C@H]3COc4c(F)c(N5CCNCC5)cc(F)c4C3)c(N)c2s1` [Example 56, (R)-6-amino-N-(5,8-difluoro-7-(piperazin-1-yl)chroman-3-yl)-2-methylthieno[2,3-d]thiazole-5-carboxamide]: the IC50 fell in the range of 200 to 2000 nM.

As for `O=C(N[C@H]1COc2cc(N3CCNCC3)ccc2C1)c1cnc2c(c1)CC[C@H]2O` [Example 57, (R)-7-hydroxy-N-((R)-7-(piperazin-1-yl)chroman-3-yl)-6,7-dihydro-5H-cyclopenta[b]pyridine-3-carboxamide], the IC50 is > 2000 nM.
